Reference: patent US12466829B2, “Spirocyclic piperidine melanocortin subtype-2 receptor (MC2R) antagonists and uses thereof” (Crinetics Pharmaceuticals, Inc., priority 2019, dated 2025)

Target: T1, hMC2 receptor (Homo sapiens, UniProt Q01718)
T1 construct: host or cells: CRE-bla-CHO-K1 cells
Assay: hMC2 membrane binding assay ([125I]ACTH (1-39) Tyr23, SPA)
Settings: crude membranes of CRE-bla-CHO-K1 cells expressing hMC2 receptor and hMRAP; 0.2 nM [125I]ACTH (1-39) Tyr23; 1.5 hours at room temperature; read-out: MC2R binding potency
Method: Crude membrane fractions are prepared from CRE-bla-CHO-K1 cells stably expressing hMC2 receptor and hMRAP accessory protein (Thermo Fisher). The cells are grown to 85-100% confluence on standard tissue culture dishes in GlutaMax DMEM growth media (Gibco) with following additives: 10% dialyzed FBS (Gemini), 0.1 mM NEAA (Gibco), 25 mM HEPES (Gibco), 5 μg/mL blasticidin (Goldbio), 100 μg/mL zeocin (Invitrogen), 600 μg/mL hygromycin (Goldbio). To prepare membranes, cells are scraped and collected in 1× Dulbecco's phosphate buffered saline (Corning) and then pelleted at 1000 RPM's. The cell pellet is reconstituted in membrane preparation buffer (20 mM HEPES, 6 mM MgCl2 and 1 mM EGTA, protease inhibitor tablets (Pierce) adjusted to pH 7.4), homogenized using a dounce homogenizer, and the resulting membrane fraction is pelleted by centrifugation at 12,000 RPM's. The membrane pellet is resuspended in membrane preparation buffer, snap freezed and stored at −80° C. for later use.
The hMC2 membrane binding assay utilizes the following components: radiolabel [^125I]ACTH (1-39) Tyr23 (PerkinElmer), wheatgerm agglutinin coated PVT SPA beads (PerkinElmer), crude hMC2R membranes, and compounds. Briefly hMC2R membranes are incubated with SPA beads in binding assay buffer (50 mM HEPES, 5 mM MgCl2, 1 mM CaCl2), 0.2% BSA, protease inhibitor tablets (Pierce) adjusted to pH7.4) prior to assay initiation. […] Assay plates are read using a Top Count NXT and Ki values for compounds are determined using a GraphPad Prism 6 non-linear regression analysis.

T1 sequence (Q01718 whole entry): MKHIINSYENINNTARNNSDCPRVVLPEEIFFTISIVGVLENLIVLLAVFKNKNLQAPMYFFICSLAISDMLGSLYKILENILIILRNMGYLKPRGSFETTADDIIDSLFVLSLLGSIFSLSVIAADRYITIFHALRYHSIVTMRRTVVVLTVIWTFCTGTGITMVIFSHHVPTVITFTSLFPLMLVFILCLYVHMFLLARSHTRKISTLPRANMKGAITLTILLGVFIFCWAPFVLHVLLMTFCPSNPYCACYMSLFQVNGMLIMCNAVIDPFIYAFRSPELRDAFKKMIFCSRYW
T1 sequence (Q8TCY5 whole entry partner): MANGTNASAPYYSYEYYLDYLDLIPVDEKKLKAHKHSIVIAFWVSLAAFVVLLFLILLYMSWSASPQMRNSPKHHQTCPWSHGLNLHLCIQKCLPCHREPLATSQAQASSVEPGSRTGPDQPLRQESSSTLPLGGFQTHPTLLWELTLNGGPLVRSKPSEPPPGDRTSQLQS

Row | Ki | Compound
1 | 10 to 100 nM | CCOc1ccccc1-c1ccc2c(c1)N(C(=O)CN)CC21CCN(c2ccc(C(F)(F)F)cc2C#N)CC1 [1-2, 2-[1-(2-aminoacetyl)-6-(2-ethoxyphenyl)-1,2-dihydrospiro[indole-3,4′-piperidin]-1′-yl]-5-(trifluoromethyl)benzonitrile]
2 | 10 to 100 nM | CCOc1ncccc1-c1ccc2c(c1)N(C(=O)C[C@@H](C)N)CC21CCN(c2ccc(C(F)(F)F)cc2C#N)CC1 [1-6, 2-{1-[(3R)-3-aminobutanoyl]-6-(2-ethoxypyridin-3-yl)-1,2-dihydrospiro[indole-3,4′-piperidin]-1′-yl}-5-(trifluoromethyl)benzonitrile]
3 | 10 to 100 nM | CCOc1ncccc1-c1ccc2c(c1)N(C(=O)CCN)CC21CCN(c2ccc(C(F)(F)F)cc2Cl)CC1 [1-7, 3-amino-1-{1′-[2-chloro-4-(trifluoromethyl)phenyl]-6-(2-ethoxypyridin-3-yl)-1,2-dihydrospiro[indole-3,4′-piperidin]-1-yl}propan-1-one]
4 | 10 to 100 nM | CCOc1ncccc1-c1ccc2c(c1)N(C(=O)[C@@H]1CCNC1)CC21CCN(c2ccc(C(F)(F)F)cc2C#N)CC1 [1-9, 2-[6-(2-ethoxypyridin-3-yl)-1-[(3R)-pyrrolidine-3-carbonyl]-1,2-dihydrospiro[indole-3,4′-piperidin]-1′-yl]-5-(trifluoromethyl)benzonitrile]
5 | < 10 nM | CCOc1ncccc1-c1ccc2c(c1)N(CCN)C(=O)C21CCN(c2ccc(C(F)(F)F)cc2C#N)CC1 [1-16, 2-[1-(2-aminoethyl)-6-(2-ethoxypyridin-3-yl)-2-oxo-1,2-dihydrospiro[indole-3,4′-piperidin]-1′-yl]-5-(trifluoromethyl)benzonitrile]
6 | 10 to 100 nM | CCOc1ncccc1-c1ccc2c(c1)N([C@H]1CCNC1)C(=O)C21CCN(c2ccc(C(F)(F)F)cc2C#N)CC1 [1-17, 2-[6-(2-ethoxypyridin-3-yl)-2-oxo-1-[(3S)-pyrrolidin-3-yl]-1,2-dihydrospiro[indole-3,4′-piperidin]-1′-yl]-5-(trifluoromethyl)benzonitrile]
7 | < 10 nM | CCOc1ncccc1-c1ccc2c(c1)N([C@@H]1CCNC1)C(=O)C21CCN(c2ccc(C(F)(F)F)cc2C#N)CC1 [1-18, 2-[6-(2-ethoxypyridin-3-yl)-2-oxo-1-[(3R)-pyrrolidin-3-yl]-1,2-dihydrospiro[indole-3,4′-piperidin]-1′-yl]-5-(trifluoromethyl)benzonitrile]
8 | 1000 to 10000 nM | CCOc1ncccc1-c1ccc2c(c1)N(C(=O)CCN)CC21CCN(c2cc(C#N)cc(C(F)(F)F)n2)CC1 [1-19, 2-[1-(3-aminopropanoyl)-6-(2-ethoxypyridin-3-yl)-1,2-dihydrospiro[indole-3,4′-piperidin]-1′-yl]-6-(trifluoromethyl)pyridine-4-carbonitrile]
9 | 1000 to 10000 nM | CCOc1ncccc1-c1ccc2c(c1)N(C(=O)CCN)CC21CCN(c2ccc(F)c(C(F)(F)F)n2)CC1 [1-20, 3-amino-1-[6-(2-ethoxypyridin-3-yl)-1′-[5-fluoro-6-(trifluoromethyl)pyridin-2-yl]-1,2-dihydrospiro[indole-3,4′-piperidin]-1-yl]propan-1-one]
10 | 10 to 100 nM | CCOc1ncccc1-c1ccc2c(c1)N([C@@H]1CCN(C)C1)C(=O)C21CCN(c2ccc(C(F)(F)F)cc2C#N)CC1 [1-21, 2-[6-(2-ethoxypyridin-3-yl)-1-[(3R)-1-methylpyrrolidin-3-yl]-2-oxo-1,2-dihydrospiro[indole-3,4′-piperidin]-1′-yl]-5-(trifluoromethyl)benzonitrile]
11 | 10 to 100 nM | CCOc1ncccc1-c1ccc2c(c1)N(C(=O)CCN)CC21CCN(c2ccc(Cl)cc2C(F)(F)F)CC1 [1-22, 3-amino-1-{1′-[4-chloro-2-(trifluoromethyl)phenyl]-6-(2-ethoxypyridin-3-yl)-1,2-dihydrospiro[indole-3,4′-piperidin]-1-yl}propan-1-one]
12 | 10 to 100 nM | CCOc1ccc(N2CCC3(CC2)CN(C(=O)CCN)c2cc(-c4cccnc4OCC)ccc23)c(C(F)(F)F)n1 [1-23, 3-amino-1-{1′-[6-ethoxy-2-(trifluoromethyl)pyridin-3-yl]-6-(2-ethoxypyridin-3-yl)-1,2-dihydrospiro[indole-3,4′-piperidin]-1-yl}propan-1-one]
13 | 1000 to 10000 nM | CCOc1ccc(N2CCC3(CC2)CN(C(=O)CCN)c2cc(-c4cccnc4OCC)ccc23)nc1C(F)(F)F [1-25, 3-amino-1-{1′-[5-ethoxy-6-(trifluoromethyl)pyridin-2-yl]-6-(2-ethoxypyridin-3-yl)-1,2-dihydrospiro[indole-3,4′-piperidin]-1-yl}propan-1-one]
14 | 10 to 100 nM | CCOc1ncccc1-c1ccc2c(c1)N(C(=O)NCCN)CC21CCN(c2ccc(C(F)(F)F)cc2C#N)CC1 [1-27, N-(2-aminoethyl)-1′-[2-cyano-4-(trifluoromethyl)phenyl]-6-(2-ethoxypyridin-3-yl)-1,2-dihydrospiro[indole-3,4′-piperidine]-1-carboxamide]

Continued, compound first:

Row | Compound | Ki
15 | 2-[1′-(3-aminopropyl)-7′-(2-ethoxypyridin-3-yl)-2′-oxo-2′,3′-dihydro-1′H-spiro[piperidine-4,4′-quinolin]-1-yl]-5-(trifluoromethyl)benzonitrile [1-67] | 10 to 100 nM
16 | CCOc1ncccc1-c1ccc2c(c1)N(C(=O)CN)CC21CCN(c2ccc(C(F)(F)F)cc2C#N)CC1 [1-1, 2-[1-(2-aminoacetyl)-6-(2-ethoxypyridin-3-yl)-1,2-dihydrospiro[indole-3,4′-piperidin]-1′-yl]-5-(trifluoromethyl)benzonitrile] | 10 to 100 nM
17 | CCOc1ncccc1-c1ccc2c(c1)N(C(=O)CCN)CC21CCN(c2ccc(C(F)(F)F)cc2C#N)CC1 [1-3, 2-[1-(3-aminopropanoyl)-6-(2-ethoxypyridin-3-yl)-1,2-dihydrospiro[indole-3,4′-piperidin]-1′-yl]-5-(trifluoromethyl)benzonitrile] | 10 to 100 nM
18 | CCOc1ncccc1-c1ccc2c(c1)N(C(=O)C[C@H](C)N)CC21CCN(c2ccc(C(F)(F)F)cc2C#N)CC1 [1-5, 2-{1-[(3 S)-3-aminobutanoyl]-6-(2-ethoxypyridin-3-yl)-1,2-dihydrospiro[indole-3,4′-piperidin]-1′-yl}-5-(trifluoromethyl)benzonitrile] | 10 to 100 nM
19 | CCOc1ncccc1-c1ccc2c(c1)N(C(=O)CCN)CC21CCN(c2cc(C#N)cc(C(F)(F)F)c2)CC1 [1-8, 3-[1-(3-aminopropanoyl)-6-(2-ethoxypyridin-3-yl)-1,2-dihydrospiro[indole-3,4′-piperidin]-1′-yl]-5-(trifluoromethyl)benzonitrile] | 1000 to 10000 nM
20 | CCOc1ncccc1-c1ccc2c(c1)N(C(=O)[C@H]1CCNC1)CC21CCN(c2ccc(C(F)(F)F)cc2C#N)CC1 [1-10, 2-[6-(2-ethoxypyridin-3-yl)-1-[(3S)-pyrrolidine-3-carbonyl]-1,2-dihydrospiro[indole-3,4′-piperidin]-1′-yl]-5-(trifluoromethyl)benzonitrile] | 10 to 100 nM
21 | CCOc1ncccc1-c1ccc2c(c1)N(C(=O)CCCN)CC21CCN(c2ccc(C(F)(F)F)cc2C#N)CC1 [1-11, 2-[1-(4-aminobutanoyl)-6-(2-ethoxypyridin-3-yl)-1,2-dihydrospiro[indole-3,4′-piperidin]-1′-yl]-5-(trifluoromethyl)benzonitrile] | 10 to 100 nM
22 | CCOc1ncccc1-c1ccc2c(c1)N(CCN)CC21CCN(c2ccc(C(F)(F)F)cc2C#N)CC1 [1-12, 2-[1-(2-aminoethyl)-6-(2-ethoxypyridin-3-yl)-1,2-dihydrospiro[indole-3,4′-piperidin]-1′-yl]-5-(trifluoromethyl)benzonitrile] | 10 to 100 nM
23 | CCOc1ncccc1-c1ccc2c(c1)N(C[C@@H](C)N)CC21CCN(c2ccc(C(F)(F)F)cc2C#N)CC1 [1-13, 2-{1-[(2R)-2-aminopropyl]-6-(2-ethoxypyridin-3-yl)-1,2-dihydrospiro[indole-3,4′-piperidin]-1′-yl}-5-(trifluoromethyl)benzonitrile] | < 10 nM
24 | CCOc1ncccc1-c1ccc2c(c1)N(C[C@H](C)N)CC21CCN(c2ccc(C(F)(F)F)cc2C#N)CC1 [1-14, 2-{1-[(2S)-2-aminopropyl]-6-(2-ethoxypyridin-3-yl)-1,2-dihydrospiro[indole-3,4′-piperidin]-1′-yl}-5-(trifluoromethyl)benzonitrile] | 10 to 100 nM
25 | CCOc1ncccc1-c1ccc2c(c1)N(C(=O)CCN)CC21CCN(c2cc(C(F)(F)F)cc(C#N)n2)CC1 [1-24, 6-[1-(3-aminopropanoyl)-6-(2-ethoxypyridin-3-yl)-1,2-dihydrospiro[indole-3,4′-piperidin]-1′-yl]-4-(trifluoromethyl)pyridine-2-carbonitrile] | 1000 to 10000 nM
26 | CCOc1ncccc1-c1ccc2c(c1)N(C(=O)CCN)C(C)C21CCN(c2ccc(C(F)(F)F)cc2C#N)CC1 (centres unmarked) [1-26, 2-[1-(3-aminopropanoyl)-6-(2-ethoxypyridin-3-yl)-2-methyl-1,2-dihydrospiro[indole-3,4′-piperidin]-1′-yl]-5-(trifluoromethyl)benzonitrile] | 10 to 100 nM
